One experiment relates to Human monocytes. The experiment in a line: Chemotaxis assay (monocyte migration in agarose plates). In kind it is cell-based. Also on record: key: (cells migrating to attractant − cells migrating to buffer)/10. The text has this:
Briefly, monocyte migration is directly observed in a chemotaxis chamber.
A comparative study comparing the chemotactic activity of the peptides of the invention with the chemotactic activity of peptide T (C. B. Pert et al., Proc. Natl. Acad. Sci., Vol. 83, pp. 9254-9258, 1986) was undertaken. […] Human monocytes were obtained by the known technique of layering heparinized blood on FICOLL-HYPAQUE differential dentrifugation medium in a centrifuge tube and spinning to separate the red blood cells from plasma and the monolayered monocytes. The monocytes were pipetted off and then washed with physiological saline.
The agarose plates were also prepared in accordance with conventional methods. Agarose type II (0.4 g), available from Sigma Chemical, and LITEX gelatin (0.3 g) were combined and heated until the gelatin was thoroughly dissolved. RMPI-HANK buffer (4 ml), distilled water (15.2 ml) and saturated NaHCO3 solution (0.8 ml) were then added to the agarose gelatin and mixed to homogeneity. 5 ml aliquots of the resulting solution were poured into plastic petri dishes (FALCON 55 mm) and allowed to gel. After the agarose has sufficiently hardened, wells, 3 mm in diameter were cut in the agarose, such that each dish had six rows of wells radiating from the center of the dish, each row containing three wells spaced apart by a distance of 3 mm. Thus, each plate was used to assay two test samples in triplicate. 8 ul of the test peptide (in 120 mM HEPES buffer) was placed on the outermost well, 8 ul of monocyte cell solution was placed in the center well and 8 ul of RPMI-HANKS buffer was placed in the innermost well. The migration of monocytes was visually observed and the number of migrating cells was determined. A chemotactic index was calculated as the number of cells which migrated toward the attractant, i.e., test peptide or control, less the number of cells that migrated towards the buffer divided by 10. Formyl-Met-Leu-Phe (FMLP) and (D-Ala)Peptide-T were used as positive control and HEPES buffer and Leu-Gly-Gly were used as negative controls.

In experiment [1] the test system is binding of HIV to T4 cells. The settings on record: reported by Pert et al., PNAS 1986; cited from earlier work.
The mark [2] stands for this setting: attractant concentration 10^-9 M.
[3] abbreviates: attractant concentration 10^-10 M.
Where [4] appears, read: attractant concentration 10^-11 M.

Take “ALA--SER--SER--SER--ASN--TYR--MET (ASSSNYM; printed: ALA--SER--SER--SER--ASN--TYR--MET) [Example 6, linear heptapeptide]”: the “Chemotactic Index” value worked out at 4.9 in the experiment on Human monocytes (setting [2]), 4.7 in the experiment on Human monocytes (setting [3]) and 5.1 in the experiment on Human monocytes (setting [4]).

As for “H-SER-SER-ASN-TYR-MET (SSNYM; printed: SER-SER-ASN-TYR-MET) [Example 8, linear pentapeptide]”, the “Chemotactic Index” value with Human monocytes (setting [2]) was determined as 5.0; with Human monocytes (setting [3]), 4.8; in the experiment on Human monocytes (setting [4]) it was 6.0.

In the case of “Ala-Ser-Thr-Thr-Thr-Asn-Tyr-Thr [peptide T]”, the “Blocking of the binding of HIV to T4 cells (in words)” value in experiment [1] is “block the binding of HIV to T4 cells”.

For “SER--SER--SER--ASN--TYR--MET (SSSNYM; printed: SER--SER--SER--ASN--TYR--MET) [Example 7, linear hexapeptide]”, the “Chemotactic Index” value with Human monocytes (setting [2]) was determined as 4.6; in the experiment on Human monocytes (setting [3]), 5.1; with Human monocytes (setting [4]) it was 5.3.

Values taken from US5162499A, “Synthetic peptides for the treatment of AIDS” (Heterocyclic Research, Inc., priority 1991, dated 1992).
